Some test systems named below: RPMI-8226 leukemia; SN12C renal; K-562 leukemia; HOP-62 NSCLC; HOP-92 NSCLC.
Holding throughout (assay): NCI tumour cell line growth inhibition, 48 h

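These data come from cells grown in 96-well plates and exposed to compound for 48 hours at five concentrations. Definition used: TGI = concentration required for complete inhibition of growth.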 Where a SMILES comes first, the peptide text is derived from it. [ ]: non-standard residue; d: D form. The star is where a group is joined. Bn2Val = CC(C)[C@@H](C(=O)*)N(Cc1ccccc1)Cc1ccccc1; NH(3,4-diMeO-benzyl) = COc1ccc(CN*)cc1OC; NMeV = CN[C@H](C(=O)O)C(C)C Where only a bound is given, the exact number is not on record here.

On to `O=C1OC(CS(=O)(=O)c2ccccc2)CC1O` (centres undefined), for which the TGI with RPMI-8226 leukemia, in the assay on SN12C renal, with K-562 leukemia and with HOP-62 NSCLC was greater than 100 µM throughout.

Turning to `COc1ccc(C2=NN(C(=O)c3cccnc3)C(O)(c3cc(F)c(Cl)cc3Cl)C2)cc1OC` (centres undefined), the TGI came to 73 µM in the assay on RPMI-8226 leukemia; 34.7 µM in the assay on SN12C renal; 69 µM with K-562 leukemia; 50.8 µM in the assay on HOP-92 NSCLC; 47.7 µM in the assay with HOP-62 NSCLC.

As to `CC1=C2CN(C(=O)OCC(C)C)CCC2C2=C(C(=O)c3ccccc3C2=O)C1C` (centres undefined), the TGI with RPMI-8226 leukemia, in the assay on SN12C renal, in the assay on K-562 leukemia, in the assay on HOP-92 NSCLC and in the assay with HOP-62 NSCLC was greater than 10 µM in each case.

Turning to `CN1CCc2cc(N)cc3c2C1Cc1ccc2c(c1-3)OCO2` (centres undefined), the TGI with RPMI-8226 leukemia is 46.9 µM; in the assay on SN12C renal, greater than 88.6 µM; in the assay on K-562 leukemia it was greater than 80 µM; in the assay with HOP-92 NSCLC it was 66.9 µM; in the assay on HOP-62 NSCLC, greater than 100 µM.

On to `O=C(O)c1ccc(NNC(=O)c2cccc3c(=O)c4ccccc4[nH]c23)cc1`, for which the TGI in the assay on RPMI-8226 leukemia, in the assay with SN12C renal, in the assay on K-562 leukemia, with HOP-92 NSCLC and with HOP-62 NSCLC was greater than 100 µM throughout.

With `Cc1nnc2n1N=C(c1cc(F)c(Cl)cc1Cl)/C(=C/c1ccc3c(c1)OCO3)S2`, the TGI in the assay with RPMI-8226 leukemia, with SN12C renal, in the assay with K-562 leukemia, in the assay on HOP-92 NSCLC and with HOP-62 NSCLC was greater than 100 µM in each case.

Regarding `O=C(c1ccccc1)C1C[C@H]2CO[C@H](c3ccccc3)N2C1=O` (some centres undefined), the TGI in the assay with RPMI-8226 leukemia, in the assay with SN12C renal, in the assay with K-562 leukemia and with HOP-92 NSCLC was greater than 100 µM in each case.

Take `Cc1cn(C2CC(NC(=NCC3OC(n4cnc5c(N)ncnc54)CC3O)NC#N)C(CO)O2)c(=O)[nH]c1=O` (centres undefined): the TGI in the assay with SN12C renal, with K-562 leukemia, in the assay with HOP-92 NSCLC and in the assay on HOP-62 NSCLC was greater than 100 µM each time.

As to `CC1=CC(=O)/C(=C/n2c(=S)[nH]c3ccc([N+](=O)[O-])cc32)C(=O)O1`, the TGI in the assay on RPMI-8226 leukemia, in the assay on SN12C renal, in the assay with K-562 leukemia, in the assay on HOP-92 NSCLC and in the assay with HOP-62 NSCLC was greater than 100 µM in each case.

`COc1cc2c(cc1OC)C(=O)/C(=C/c1ccc([N+](=O)[O-])cc1)CC2`: the TGI in the assay on RPMI-8226 leukemia, with SN12C renal, with K-562 leukemia, in the assay on HOP-92 NSCLC and in the assay on HOP-62 NSCLC was greater than 10 µM each time.

As to `N#CC1(C#N)C(c2ccccc2)C=CC(c2ccc([N+](=O)[O-])cc2)C1(C#N)C#N` (centres undefined), the TGI in the assay with RPMI-8226 leukemia is greater than 25.6 µM; in the assay on SN12C renal, 12.2 µM; with K-562 leukemia, greater than 100 µM; in the assay with HOP-92 NSCLC it was 9.88 µM; in the assay with HOP-62 NSCLC, 31.7 µM.

Turning to `CC[C@H]1C=CCC[C@@]2(C[C@@H]3CC[C@H]4[C@H](C(=O)OCCCCCCCCCCCCCCCC(=O)N(CCCN)C[C@@H](O)CCN)[C@]5(CCC[C@@H](C)O5)NC(=[N+]34)N2)O1`, the TGI with RPMI-8226 leukemia stood at 0.833 µM; with SN12C renal it was 2.19 µM; in the assay on K-562 leukemia, 1.05 µM; in the assay with HOP-92 NSCLC it was 1.45 µM; in the assay on HOP-62 NSCLC, 2.69 µM.

With `CCOC(=O)c1cc2cc(C)cc(C(=O)c3ccc([N+](=O)[O-])cc3)c2[nH]1`, the TGI with RPMI-8226 leukemia, with SN12C renal, in the assay on K-562 leukemia, with HOP-92 NSCLC and in the assay on HOP-62 NSCLC was greater than 100 µM each time.

Consider `CC1C(O)Oc2cc3c(cc2C1c1ccccc1O)OCO3` (centres undefined), for which the TGI with RPMI-8226 leukemia is 48.1 µM; in the assay on SN12C renal, greater than 100 µM; in the assay with K-562 leukemia, 46.5 µM; with HOP-92 NSCLC it was 47.2 µM; with HOP-62 NSCLC, greater than 100 µM.

As for `CC1=C[C@@H]2[C@@H](CC(CO)=C[C@H]3[C@@H]4C(C)(C)[C@]4(OCC(C)C)[C@H](OCC(C)C)[C@@H](C)[C@]23O)C1=O`, the TGI with SN12C renal was 4.22 µM; in the assay with K-562 leukemia it was greater than 4.86 µM; with HOP-92 NSCLC, greater than 5.57 µM; in the assay on HOP-62 NSCLC, 2.8 µM.

With `COc1cccc(Nc2nc(N)nc(N)c2N=O)c1`, the TGI is 60.6 µM in the assay on RPMI-8226 leukemia; greater than 100 µM in the assay with SN12C renal; greater than 100 µM with K-562 leukemia; 40 µM in the assay with HOP-92 NSCLC; greater than 100 µM with HOP-62 NSCLC.

Regarding `Cc1ccc(S(=O)(=O)Nn2c(O)c(C#N)c(-c3ccc(N(C)C)cc3)c(C#N)c2=O)cc1`, the TGI is 43.4 µM in the assay on RPMI-8226 leukemia; greater than 50 µM in the assay on SN12C renal; greater than 50 µM in the assay with K-562 leukemia; greater than 50 µM in the assay on HOP-92 NSCLC; greater than 50 µM in the assay with HOP-62 NSCLC.

For `COc1ccc(CNC(=O)[C@@H]2CCCN2C(=O)[C@@H]2CCCN2C(=O)[C@H](C(C)C)N(C)C(=O)[C@@H](NC(=O)[C@H](C(C)C)N(Cc2ccccc2)Cc2ccccc2)C(C)C)cc1OC` (Bn2Val-V[NMeV]PP-{NH(3,4-diMeO-benzyl)}), the TGI was 29.9 µM in the assay with SN12C renal, greater than 100 µM with K-562 leukemia, 28.9 µM in the assay on HOP-92 NSCLC and 32.3 µM in the assay on HOP-62 NSCLC.

In the case of `Cn1c(=O)c2c(nc3n(C)c(=O)c4ccccc4n23)n(C)c1=O`, the TGI was greater than 76.7 µM with RPMI-8226 leukemia; greater than 100 µM in the assay with SN12C renal; greater than 100 µM in the assay on K-562 leukemia; greater than 100 µM in the assay on HOP-92 NSCLC; greater than 84.3 µM in the assay on HOP-62 NSCLC.

`OC(CC(O)(C(F)(F)F)C(F)(F)F)C(O)c1ccco1` (centres undefined): the TGI with RPMI-8226 leukemia, in the assay with SN12C renal, in the assay with K-562 leukemia and with HOP-62 NSCLC was greater than 10 µM throughout.

As to `Cc1cc(O)c2c(c1)CC(O)C1=C2C(=O)c2c(O)ccc(OC3CC(O)C(OC4CC(OC5CCC(O)C(C)O5)C(O)C(C)O4)C(C)O3)c2C1=O` (centres undefined), the TGI is 3.22 µM in the assay on RPMI-8226 leukemia; 3.25 µM in the assay with SN12C renal; 6.98 µM in the assay on K-562 leukemia; 3.54 µM with HOP-92 NSCLC; 3.77 µM in the assay on HOP-62 NSCLC.

Consider `Fc1ccc2c3c([nH]c2c1)CCNC3`, for which the TGI in the assay on RPMI-8226 leukemia is greater than 100 µM; in the assay with SN12C renal it was greater than 100 µM; in the assay on K-562 leukemia it was greater than 100 µM; with HOP-92 NSCLC, 85.9 µM; with HOP-62 NSCLC, greater than 100 µM.

The values are drawn from PubChem BioAssay (NCI).
